Data: article PMC7221826, “5-Oxo-hexahydroquinoline Derivatives and Their Tetrahydroquinoline Counterparts as Multidrug Resistance Reversal Agents” (Molecules, 2020)
Like-named read-outs stand apart in the source and are kept apart here.

Assays:
[1] = test system: HEK-293; assay: MTT cell viability assay, HEK-293; format: cell-based, human; conditions: non-cancerous, read-out: IC50 (µM) in Cultured Cells HEK-293
Description: (§1) Cell lines used for cytotoxicity assays included MCF-7 (human breast adenocarcinoma), A549 (human lung adenocarcinoma), K562 (human chronic myelogenous leukemia) and HEK-293 (human embryonic kidney) cells and were obtained from the Iranian Biological Resource Center, Tehran, Iran. MES-SA-DX5 multidrug resistant human uterine sarcoma, over-expressing P-gp and their parental non-resistant MES-SA cell lines were purchased from Sigma-Aldrich (St. Louis, MO, USA). All cells, except for HEK-293, were cultured in RPMI 1640 supplemented with 10% FBS and 100 units/mL penicillin-streptomycin at 37 °C in humidified air containing 5% CO2. HEK-293 cells were maintained in DMEM-F12 medium containing L-glutamine 2 mM supplemented with FBS and penicillin-streptomycin. MES-SA-DX5 cells were maintained in media containing 100 nM doxorubicin in order to ensure that only drug-resistant cells continue to grow.
(§2) Cytotoxicity of the test compounds were evaluated by MTT assay. In this method, reduction of MTT, a yellow tetrazolium salt to the purple formazan, by cellular dehydrogenase enzymes is determined as an index of cell viability. Cancer cells were seeded into 96-well plates (3–5 × 10^3 cells/well) and incubated for 24 h at 37 °C. Afterwards, four different concentrations of synthesized derivatives were added in triplicate and the cells were incubated at 37 °C for another 72 h, after which the media was replaced with MTT solution at a concentration of 0.5 mg/mL was added for MTT assay. After another 4h, formazan crystals were dissolved in 200 μL DMSO for 90 min and absorbance was measured at a wavelength of 570 nm with background correction at 650 nm using a microplate reader (model 680, Bio-Rad, Hercules, CA, USA) and IC50 for each compound was calculated with CurveExpert version 1.34 for Windows.

[2] = test system: MES-SA-DX5 cells; assay: Cell cycle analysis by propidium iodide (PI)-RNase flow cytometry; format: cell-based, human; design: Sub G1: unit not given here; conditions: 24 h
Experimental: The analysis of cells in different phases of cell cycle and sub-G1 was performed using propidium iodide (PI)-RNase assay by flow cytometry. MES-SA-DX5 cells were seeded in 12-well plates (1 × 10^6 cells/well) and treated with different concentrations of synthesized compounds for 24 h. The cells were then collected, washed with PBS, and fixed with 70% ethanol overnight at –20 °C. After at least 24 h, fixed cells were washed with PBS and subsequently stained with a DNA staining solution containing PI 20 μg/mL and RNase 200 μg/mL at room temperature for 30 min in the dark. Twenty thousand cells of each sample were analyzed using a BD FACSCalibur flow cytometer (BD Biosciences, USA) and the amount of the cells in sub-G1, G0/G1, S, and G2/M phases were estimated using CellQuest (Becton Dickinson, San Jose, CA, USA) software.
Therefore, it could be concluded that these compounds cause cytotoxicity in drug resistant MES-SA-DX5 cells by induction of apoptosis in these cells.
Figure 3 Effect of synthesized derivatives on cell cycle alterations in MES-SA-DX5 drug resistant cells. The cells in different phases of cell cycle were monitored using propidium iodide (PI)-RNase assay by flow cytometry. MES-SA-DX5 cells were seeded in 12-well plates (1 × 10^6 cells/well) and treated with different concentrations of synthesized compounds for 24 h. The cells were then collected, washed with PBS and fixed with 70% ethanol overnight at –20 °C. After at least 24 h, fixed cells were washed with PBS and subsequently stained with a DNA staining solution containing PI 20 μg/mL and RNase 200 μg/mL at room temperature for 30 min in the dark. Twenty thousand cells of each sample were analyzed using a FACS Calibur flow cytometer (BD Biosciences, USA). Representative histograms of cells treated with synthesized compounds are shown. An increase in sub-G1 phase cells could be observed after treatment with A1, A2, B1, and B2 compounds.

[3] = test system: MCF-7; assay: MTT cell viability assay, MCF-7; format: cell-based, human; conditions: read-out: IC50 (µM) in Cultured Cells MCF-7
Description: as §1, §2

[4] = test system: MES-SA; assay: MTT cell viability assay, MES-SA; format: cell-based, human; conditions: for IC50: MTT, 72 h, parental non-resistant, read-out: IC50 (µM) in Cultured Cells MES-SA
Description: as §1, §2

[5] = test system: A-549; assay: MTT cell viability assay, A-549; format: cell-based, human; conditions: read-out: IC50 (µM) in Cultured Cells A-549
Description: as §1, §2

[6] = test system: MES-SA-DX5; assay: MTT cell viability assay, MES-SA-DX5; format: cell-based, human; conditions: multidrug resistant, P-gp overexpressing, read-out: IC50 (µM) in Cultured Cells MES-SA-DX5
Description: as §1, §2

[7] = test system: K562; assay: MTT cell viability assay, K562; format: cell-based, human; conditions: read-out: IC50 (µM) in Cultured Cells K562
Description: as §1, §2

| Compound | IC50 ([1]; Homo sapiens, HEK293, 72 h) [µM] | IC50 ([3]; Homo sapiens, MCF7, 72 h) [µM] | IC50 ([4]; Homo sapiens, MES-SA) [µM] | IC50 ([5]; Homo sapiens, A549, 72 h) [µM] | IC50 ([6]; Homo sapiens, MES-SA/Dx5, 72 h) [µM] | IC50 ([7]; Homo sapiens, K562, 72 h) [µM] | melting point [°C] | IC50 ([1]; 72 h) [µM] | further results |
| --- | --- | --- | --- | --- | --- | --- | --- | --- | --- |
| COc1cccc2c1C(=O)c1c(O)c3c(c(O)c1C2=O)C[C@@](O)(C(=O)CO)C[C@@H]3O[C@H]1C[C@H](N)[C@H](O)[C@H](C)O1 [Doxorubicin, reference compound] | 0.009 ± 0.002 | 0.115 ± 0.042 | 0.01 ± 0.002 | 0.575 ± 0.127 | 2.2 ± 0.3 | 0.042 ± 0.006 |  |  | G0/G1 ([2]; 2.5 µM): 34.23 ± 3.3; G2/M ([2]; 2.5 µM): 52.10 ± 4.4; S ([2]; 2.5 µM): 12.57 ± 1.4; Sub G1 ([2]; 2.5 µM): 1.08 ± 0.2; G0/G1 ([2]; 5 µM): 21.50 ± 2.5; G2/M ([2]; 5 µM): 64.13 ± 4.2; S ([2]; 5 µM): 12.57 ± 1.7; Sub G1 ([2]; 5 µM): 1.81 ± 0.3; sensitivity of parental MES-SA cells compared to resistant cells ([4]; MES-SA vs MES-SA-DX5, MTT): more than 200 times |
| 4-(3,4-Dimethoxyphenyl)-2-methyl-N-(5-methylthiazol-2-yl)-5-oxo-5,6,7,8-tetrahydroquinoline-3-carboxamide [Compound B8] |  |  |  |  |  |  |  |  | IC50 ([3]; 72 h): > 100 µM; IC50 ([5]; 72 h): > 100 µM; IC50 ([6]; 72 h): > 100 µM; IC50 ([7]; 72 h): 67.5 ± 8 µM |
| COc1ccc(-c2c(C(=O)Nc3csc(C)n3)c(C)nc3c2C(=O)CCC3)cc1 [Compound B7, 4-(4-Methoxyphenyl)-2-methyl-N-(2-methylthiazol-4-yl)-5-oxo-5,6,7,8-tetrahydroquinoline-3-carboxamide] |  | > 100 |  | > 100 | > 100 | 32.9 ± 5.1 | 166 |  |  |
| COc1cc(-c2c(C(=O)Nc3csc(C)n3)c(C)nc3c2C(=O)CCC3)cc(OC)c1OC [Compound B4, 2-Methyl-N-(2-methylthiazol-4-yl)-5-oxo-4-(3,4,5-trimethoxyphenyl)-5,6,7,8-tetrahydroquinoline-3-carboxamide] |  | > 100 |  | > 100 | > 100 | > 100 | 238 |  |  |
| COc1ccc(C2C(C(=O)Nc3csc(C)n3)=C(C)NC3=C2C(=O)CCC3)cc1 (stereo not shown) [Compound A7, 4-(4-Methoxyphenyl)-2-methyl-N-(2-methylthiazol-4-yl)-5-oxo-1,4,5,6,7,8-hexahydroquinoline-3-carboxamide] |  | > 100 |  | > 100 | > 100 | > 100 | 185 |  |  |
| Cc1nc(NC(=O)c2c(C)nc3c(c2-c2cccc(Cl)c2)C(=O)CCC3)cs1 [Compound B3, 4-(3-Chlorophenyl)-2-methyl-N-(2-methylthiazol-4-yl)-5-oxo-5,6,7,8-tetrahydroquinoline-3-carboxamide] | > 50 | > 100 | > 100 | > 100 | 85.2 ± 7.4 | 50.2 ± 2.6 | 241 | > 100 |  |
| CCOc1cc(C2C(C(=O)Nc3csc(C)n3)=C(C)NC3=C2C(=O)CCC3)ccc1O (stereo not shown) [Compound A6, 4-(3-Ethoxy-4-hydroxyphenyl)-2-methyl-N-(2-methylthiazol-4-yl)-5-oxo-1,4,5,6,7,8-hexahydroquinoline-3-carboxamide] |  | > 100 |  | > 100 | > 100 | > 100 | 251 |  |  |
| CCOc1cc(-c2c(C(=O)Nc3csc(C)n3)c(C)nc3c2C(=O)CCC3)ccc1O [Compound B6, 4-(3-Ethoxy-4-hydroxyphenyl)-2-methyl-N-(2-methylthiazol-4-yl)-5-oxo-5,6,7,8-tetrahydroquinoline-3-carboxamide] |  | > 100 |  | > 100 | > 100 | > 100 | 267 |  |  |
| N.N.[Cl][Pt][Cl] [Cisplatin, cisplatin, reference compound] |  |  |  |  |  |  |  | 1.1 ± 0.5 | IC50 ([3]; 72 h): 26.3 ± 7.9 µM; IC50 [4]: 1.2 ± 0.1 µM; IC50 ([5]; 72 h): 14 ± 0.5 µM; IC50 ([6]; 72 h): 8.6 ± 0.5 µM; IC50 ([7]; 72 h): 3.3 ± 2.3 µM |
| COc1cc(C2C(C(=O)Nc3csc(C)n3)=C(C)NC3=C2C(=O)CCC3)cc(OC)c1OC (stereo not shown) [Compound A4, 2-Methyl-N-(2-methylthiazol-4-yl)-5-oxo-4-(3,4,5-trimethoxyphenyl)-1,4,5,6,7,8-hexahydroquinoline-3-carboxamide] |  | > 100 |  | > 100 | > 100 | > 100 | 160 |  |  |
| CC1=C(C(=O)Nc2csc(C)n2)C(c2cccc(Cl)c2)C2=C(CCCC2=O)N1 (stereo not shown) [Compound A3, 4-(3-Chlorophenyl)-2-methyl-N-(2-methylthiazol-4-yl)-5-oxo-1,4,5,6,7,8-hexahydroquinoline-3-carboxamide] | > 50 | > 100 | > 100 | > 100 | 78 ± 4 | 56.4 ± 7 | 253 | 93.7 ± 11.9 | G0/G1 ([2]; 10 µM): 50.35 ± 4.5; G2/M ([2]; 10 µM): 23.25 ± 1.6; S ([2]; 10 µM): 18.23 ± 2.6; Sub G1 ([2]; 10 µM): 0.51 ± 0.1; G0/G1 ([2]; 25 µM): 56.18 ± 1.2; G2/M ([2]; 25 µM): 23.08 ± 1.0; S ([2]; 25 µM): 19.70 ± 2.0; Sub G1 ([2]; 25 µM): 0.97 ± 0.2; G0/G1 ([2]; 100 µM): 53.64 ± 1.4; G2/M ([2]; 100 µM): 29.46 ± 1.8; S ([2]; 100 µM): 13.31 ± 1.0 |
| Cc1nc(NC(=O)c2c(C)nc3c(c2-c2ccc(Cl)cc2)C(=O)CCC3)cs1 [Compound B5, 4-(4-Chlorophenyl)-2-methyl-N-(2-methylthiazol-4-yl)-5-oxo-5,6,7,8-tetrahydroquinoline-3-carboxamide] | > 50 | 89.5 ± 3.5 | > 100 | 91 ± 4.6 | 62.3 ± 5.5 | 10.4 ± 1.5 | 251 | 64.2 ± 1.1 | G0/G1 ([2]; 10 µM): 53.87 ± 0.7; G2/M ([2]; 10 µM): 27.27 ± 2.6; S ([2]; 10 µM): 18.13 ± 1.9; Sub G1 ([2]; 10 µM): 0.62 ± 0.1; G0/G1 ([2]; 25 µM): 55.43 ± 1.3; G2/M ([2]; 25 µM): 26.07 ± 2.7; S ([2]; 25 µM): 17.73 ± 1.3; Sub G1 ([2]; 25 µM): 0.69 ± 0.1; G0/G1 ([2]; 100 µM): 57.58 ± 0.9; G2/M ([2]; 100 µM): 26.87 ± 0.9; S ([2]; 100 µM): 13.62 ± 0.8 |
| COc1ccc(C2C(C(=O)Nc3csc(C)n3)=C(C)NC3=C2C(=O)CCC3)cc1OC (stereo not shown) [Compound A8, 4-(3,4-Dimethoxyphenyl)-2-methyl-N-(2-methylthiazol-4-yl)-5-oxo-1,4,5,6,7,8-hexahydroquinoline-3-carboxamide] |  | > 100 |  | > 100 | > 100 | > 100 | 222 |  |  |
